The conditions of data set [1]: Crystal; DTA.
The nature of data set [2]: Molar enthalpy of transition or fusion. The conditions noted are these: Crystal; DSC.

Molecules are shown by their SMILES. Numbers after ± are expanded uncertainties.

Regarding `Clc1ccc(C(c2ccccc2Cl)C(Cl)Cl)cc1` (configuration not stated) [1,1-dichloro-2-(2-chlorophenyl)-2-(4-chlorophenyl)ethane], the Normal melting temperature in data set [1] is 80.00 ± 0.5 °C. Further, the “Molar enthalpy of transition or fusion” value in data set [2] came to 28.3 ± 0.84 kJ/mol.

For the origin of these results see the NIST ThermoML archive (doi:10.1016/j.jct.2009.08.017).
